Measurements as given in patent publication US8796234B2, “Crosslinking branched molecule through thiol-disulfide exchange to form hydrogel” (Agency for Science, Technology and Research, priority 2009, dated 2014).

Experiment: Drug loading capacity of sample hydrogel
Assay type: physicochemical
Conditions: poly(BAC2-AEPZ1)-PEG hydrogel
Description: Aqueous solutions of 5 wt % poly(BAC2-AEPZ1)-PEG was prepared and left to equilibrate overnight at room temperature. Appropriate amounts of doxorubicin (Dox) were loaded to make the concentration of Dox in the polymer solution 5 mg mL^−1. Subsequently, small amount of 5M sodium hydroxide (NaOH) was added in and was being vortexed for a few minutes to adjust pH to more than 12, and the solutions turn blue. Then, the solution was left undisturbed during hydrogel formation for predetermined time. After predetermined time, a slight in excessive of 5M HCl was added to neutralize the hydrogel to keep the hydrogel stable, and the hydrogel turned red. […]
The results were presented in terms of cumulative release as a function of time: Cumulative amount release (%)=(Mt/M∞) where Mt is the amount of Dox released from the hydrogel at time t and M∞ is the estimate amount of Dox loaded in the hydrogel and was calculated from the weight difference of the initial Dox solution concentration and the remaining Dox solution concentration (combining rinsing water and remaining solution expelled from the hydrogel) after loading.
1 mL of Pac/methanol was extracted from saturated stock solution (50 mg/mL) and added to a vial. […] The column effluent was detected UV spectrophotometrically at wavelength of 227 nm. […]

Row | SMILES | loading capacity of drug in the sample hydrogel
1 | COc1cccc2c1C(=O)c1c(O)c3c(c(O)c1C2=O)C[C@@](O)(C(=O)CO)C[C@@H]3O[C@H]1C[C@H](N)[C@H](O)[C@H](C)O1 [Dox, doxorubicin] | 5-10%
2 | CC(=O)O[C@H]1C(=O)[C@@]2(C)[C@H]([C@H](OC(=O)c3ccccc3)[C@]3(O)C[C@H](OC(=O)[C@H](O)[C@@H](NC(=O)c4ccccc4)c4ccccc4)C(C)=C1C3(C)C)[C@]1(OC(C)=O)CO[C@@H]1C[C@@H]2O [Pac, Paclitaxel] | 30-50%
